Measurements from patent US20250059182A1, “SOS1 INHIBITORS” (Mirati Therapeutics, Inc., priority 2021, published 2025).

Tests used:
[1] = biological target: T1, recombinant human SOS1 polypeptide (amino acids 560-1049) (Homo sapiens, UniProt Q07889); assay: HTRF displacement assay: inhibition of labeled tracer binding to SOS1; settings: Table A, Morrison equation for competitive binding
T1 construct: corresponding to amino acids 560-1049, expressed in E. Coli; made in house; host or cells: E. coli
T1 sequence (Q07889 560-1049): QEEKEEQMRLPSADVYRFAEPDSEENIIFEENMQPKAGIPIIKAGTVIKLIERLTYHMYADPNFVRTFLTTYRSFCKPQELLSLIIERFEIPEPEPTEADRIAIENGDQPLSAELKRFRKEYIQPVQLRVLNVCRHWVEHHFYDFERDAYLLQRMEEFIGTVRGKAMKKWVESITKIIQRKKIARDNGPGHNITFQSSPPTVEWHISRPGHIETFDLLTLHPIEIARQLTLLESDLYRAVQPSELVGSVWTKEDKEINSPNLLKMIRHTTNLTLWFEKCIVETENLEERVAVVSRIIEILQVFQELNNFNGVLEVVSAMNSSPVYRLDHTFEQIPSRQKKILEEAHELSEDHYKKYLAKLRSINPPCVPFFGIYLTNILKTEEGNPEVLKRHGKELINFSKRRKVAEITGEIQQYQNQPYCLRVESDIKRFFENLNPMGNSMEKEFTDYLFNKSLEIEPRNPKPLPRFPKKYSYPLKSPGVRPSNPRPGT
Experimental: The ability of a compound of Formula (I) to bind to SOS1 was measured using a HTRF displacement assay. […] After a 1-hour incubation at room temperature, the HTRF signal was measured using Clairostar plate reader (BMG Labtech) according to the manufacturer's instructions. Excitation filter EX-TR was used, and emission 1 was detected at 650-610 nm and emission 2 detected at 620-610 nm. The HTRF ratio was calculated using the formula: [emission 1/emission 2]*10000.
Background signals were calculated from well with a 10 μM inhibitor, known to inhibit 100% at that concentration. The background subtracted signals were converted to % binding relative to DMSO controls. Data were analyzed using XLFIT software (IDBS) using a Morrison equation for competitive binding and Ki's were generated compound of Formula (I).

pERK in MKN1 cells = assay: pERK inhibition, In-Cell Western (LI-COR Odyssey), MKN1 cells; type: cell-based; settings: Homo sapiens, MKN-1, Table B; MKN1 or H358 cells (table does not say which); 0.5-1 hour incubation; read-out: IC50 (nM), pERK inhibition
Experimental: This Example illustrates that exemplary compounds of the present invention prevent KRas-mediated GTP nucleotide exchange mediated by SOS1 to inhibit KRas activity thereby inhibiting the generation of the downstream effector pERK.
MKN1 cells (15,000/w) or H358 (30,000/w) were seeded in a black clear flat bottom 96-well cell culture plate (Corning, #3904) and incubated at 37° C. overnight. Assay day 1, cells were dosed with compounds of Formula (I) with a 10 μm starting concentration and serially diluted 3× for a total of 9 concentrations. The cells were incubated for approximately 0.5-1 hour with the compounds solubilized in DMSO at 37° C. Cells were immediately fixed by adding 50 μL of 4% formaldehyde to all wells in a fume hood and the plates were incubated for 20 minutes at room temperature. The formaldehyde was discarded from the plates and 150 μL of ice-cold methanol was added to permeabilize the cells for 10 minutes at −20° C. The methanol was discarded from each of the plates and any liquid remaining in the plate by tapping the plate against paper towels. Cells were then blocked with 150 μL of Odyssey blocking buffer (LI-COR Biosciences #927-50010) using 0.05% Tween for 1 hour at room temperature on a shaker. The blocking buffer was discarded and 50 μL of primary antibodies pERK (cell signaling Technology #9101L; Rabbit, 1:500) and GapDH (Millipore #MAB34; Mouse, 1:5000) diluted in Odyssey blocking buffer was added. The plates were incubated overnight at 4° C. on a shaker.
On Assay day 2, the primary antibody solution was removed. Each plate was washed 3× times with 150 μL of 1×PBST (PBS+0.1% Tween 20) and incubated with 50 μL of secondary antibodies: Anti-Rabbit (LI-COR Biosciences #926-32211) and Anti-Mouse (LI-COR Biosciences #68070) at 1:800 dilution in Odyssey blocking buffer with Tween at room temperature on a shaker for 2 hours (protected from light). The secondary antibody solution as removed and each plate was washed with PBST 3× times. Any liquid remaining was discarded and the plate was imaged using the Licor Odyssey machine according to the manufacturer's instruction, using a set focus length at 3 mm and both 800 nm and 700 nm filters. The GAPDH normalized scan values for each well were divided by the average of vehicle wells to get the % of pERK inhibition. The IC50 values were then calculated with the Graph pad Prism software.

Structure (SMILES)	Ki [1]	IC50 (pERK in MKN1 cells)
Cc1c(C#N)cccc1[C@@H](C)Nc1nnc(C)c2cnc(N(C)[C@H]3CCN(C)C3)cc12 [Example 1-5, 2-methyl-3-((R)-1-((4-methyl-7-(methyl((S)-1-methylpyrrolidin-3-yl)amino)pyrido[3,4-d]pyridazin-1-yl)amino)ethyl)benzonitrile]	0.683 nM	57.2 nM
Cc1c(C#N)cccc1[C@@H](C)Nc1nnc(C)c2cnc(N(C)[C@@H]3CCN(C)C3)cc12 [Example 1-6, 2-methyl-3-((R)-1-((4-methyl-7-(methyl((R)-1-methylpyrrolidin-3-yl)amino)pyrido[3,4-d]pyridazin-1-yl)amino)ethyl)benzonitrile]	1.56 nM	41.6 nM
CCN1CC2(C1)CN(c1cc3c(N[C@H](C)c4cccc(C#N)c4C)nnc(C)c3cn1)C2 [Example 1-7, (R)-3-(1-((7-(6-ethyl-2,6-diazaspiro[3.3]heptan-2-yl)-4-methylpyrido[3,4-d]pyridazin-1-yl)amino)ethyl)-2-methylbenzonitrile]	0.378 nM	39.4 nM
Cc1c(C#N)cccc1[C@@H](C)Nc1nnc(C)c2cnc(N3CC[C@@H](N)C3)cc12 [Example 1-8, 3-((R)-1-((7-((R)-3-aminopyrrolidin-1-yl)-4-methylpyrido[3,4-d]pyridazin-1-yl)amino)ethyl)-2-methylbenzonitrile]	1.54 nM	274 nM
Cc1c(C#N)cccc1[C@@H](C)Nc1nnc(C)c2cnc(N3CC[C@H](N)C3)cc12 [Example 1-9, 3-((R)-1-((7-((S)-3-aminopyrrolidin-1-yl)-4-methylpyrido[3,4-d]pyridazin-1-yl)amino)ethyl)-2-methylbenzonitrile]	1.66 nM	396 nM
Cc1c(C#N)cccc1[C@@H](C)Nc1nnc(C)c2cnc(N3CC4(CNC4)C3)cc12 [Example 1-10, (R)-2-methyl-3-(1-((4-methyl-7-(2,6-diazaspiro[3.3]heptan-2-yl)pyrido[3,4-d]pyridazin-1-yl)amino)ethyl)benzonitrile]	0.541 nM	3280 nM
Cc1c(C#N)cccc1[C@@H](C)Nc1nnc(C)c2cnc(N3CCN(C)[C@@H](C)C3)cc12 [Example 1-11, 3-((R)-1-((7-((S)-3,4-dimethylpiperazin-1-yl)-4-methylpyrido[3,4-d]pyridazin-1-yl)amino)ethyl)-2-methylbenzonitrile]	1.62 nM	72.5 nM
Cc1c(C#N)cccc1[C@@H](C)Nc1nnc(C)c2cnc(N3CCN(C)[C@H](C)C3)cc12 [Example 1-12, 3-((R)-1-((7-((R)-3,4-dimethylpiperazin-1-yl)-4-methylpyrido[3,4-d]pyridazin-1-yl)amino)ethyl)-2-methylbenzonitrile]	1.01 nM	56.6 nM
CCN1CCN(c2cc3c(N[C@H](C)c4cccc(C#N)c4C)nnc(C)c3cn2)C[C@H]1C [Example 1-13, 3-((R)-1-((7-((R)-4-ethyl-3-methylpiperazin-1-yl)-4-methylpyrido[3,4-d]pyridazin-1-yl)amino)ethyl)-2-methylbenzonitrile]	0.82 nM	47.3 nM
CCN1CCN(c2cc3c(N[C@H](C)c4cccc(C#N)c4C)nnc(C)c3cn2)[C@@H](C)C1 [Example 1-14, 3-((R)-1-((7-((S)-4-ethyl-2-methylpiperazin-1-yl)-4-methylpyrido[3,4-d]pyridazin-1-yl)amino)ethyl)-2-methylbenzonitrile]	0.788 nM	53.9 nM
CCN1CCN(c2cc3c(N[C@H](C)c4cccc(C#N)c4C)nnc(C)c3cn2)[C@H](C)C1 [Example 1-15, 3-((R)-1-((7-((R)-4-ethyl-2-methylpiperazin-1-yl)-4-methylpyrido[3,4-d]pyridazin-1-yl)amino)ethyl)-2-methylbenzonitrile]	0.789 nM	63.5 nM
Cc1c(C#N)cccc1[C@@H](C)Nc1nnc(C)c2cnc(N3CCN(C)C[C@H]3C)cc12 [Example 1-16, 3-((R)-1-((7-((R)-2,4-dimethylpiperazin-1-yl)-4-methylpyrido[3,4-d]pyridazin-1-yl)amino)ethyl)-2-methylbenzonitrile]	0.526 nM	34.5 nM
Cc1c(C#N)cccc1[C@@H](C)Nc1nnc(C)c2cnc(N3CCN(C)C[C@@H]3C)cc12 [Example 1-17, 3-((R)-1-((7-((S)-2,4-dimethylpiperazin-1-yl)-4-methylpyrido[3,4-d]pyridazin-1-yl)amino)ethyl)-2-methylbenzonitrile]	0.74 nM	42.6 nM
CCN1CCN(c2cc3c(N[C@H](C)c4cccc(C#N)c4C)nnc(C)c3cn2)C[C@@H]1C [Example 1-18, 3-((R)-1-((7-((S)-4-ethyl-3-methylpiperazin-1-yl)-4-methylpyrido[3,4-d]pyridazin-1-yl)amino)ethyl)-2-methylbenzonitrile]	0.836 nM	35.9 nM
Cc1c(C#N)cccc1[C@@H](C)Nc1nnc(C)c2cnc(N3CCC34CN(C)C4)cc12 [Example 1-19, (R)-2-methyl-3-(1-((4-methyl-7-(6-methyl-1,6-diazaspiro[3.3]heptan-1-yl)pyrido[3,4-d]pyridazin-1-yl)amino)ethyl)benzonitrile]	0.601 nM	32.2 nM
Cc1nnc(N[C@H](C)c2cccc(C(F)(F)F)c2F)c2cc(N3CCC34CN(C)C4)ncc12 [Example 1-20, (R)-N-(1-(2-fluoro-3-(trifluoromethyl)phenyl)ethyl)-4-methyl-7-(6-methyl-1,6-diazaspiro[3.3]heptan-1-yl)pyrido[3,4-d]pyridazin-1-amine]	0.682 nM	40.7 nM
Cc1nnc(N[C@H](C)c2cccc(C(F)(F)F)c2F)c2cc(N3CCCC34CN(C)C4)ncc12 [Example 1-21, (R)-N-(1-(2-fluoro-3-(trifluoromethyl)phenyl)ethyl)-4-methyl-7-(2-methyl-2,5-diazaspiro[3.4]octan-5-yl)pyrido[3,4-d]pyridazin-1-amine]	0.249 nM	25.5 nM
Cc1c(C#N)cccc1[C@@H](C)Nc1nnc(C)c2cnc(N3CCCC34CN(C)C4)cc12 [Example 1-22, (R)-2-methyl-3-(1-((4-methyl-7-(2-methyl-2,5-diazaspiro[3.4]octan-5-yl)pyrido[3,4-d]pyridazin-1-yl)amino)ethyl)benzonitrile]	0.248 nM	33.2 nM
Cc1nnc(N[C@H](C)c2cccc(C(F)(F)F)c2F)c2cc(N3CC4(CN(C)C4)C3)ncc12 [Example 1-23, (R)-N-(1-(2-fluoro-3-(trifluoromethyl)phenyl)ethyl)-4-methyl-7-(6-methyl-2,6-diazaspiro[3.3]heptan-2-yl)pyrido[3,4-d]pyridazin-1-amine]	0.21 nM	59.1 nM
Cc1c(C#N)cccc1[C@@H](C)Nc1nnc(C)c2cnc(N3CC4(CN(C)C4)C3)cc12 [Example 1-24, (R)-2-methyl-3-(1-((4-methyl-7-(6-methyl-2,6-diazaspiro[3.3]heptan-2-yl)pyrido[3,4-d]pyridazin-1-yl)amino)ethyl)benzonitrile]	0.353 nM	40.3 nM
Cc1c(C#N)cccc1[C@@H](C)Nc1nnc(C)c2cnc(N3CCC4(CN(C)C4)C3)cc12 [Example 1-25, (R)-2-methyl-3-(1-((4-methyl-7-(2-methyl-2,6-diazaspiro[3.4]octan-6-yl)pyrido[3,4-d]pyridazin-1-yl)amino)ethyl)benzonitrile]	0.492 nM	68.6 nM
Cc1nnc(N[C@H](C)c2cccc(C(F)(F)F)c2F)c2cc(N3CCC4(CN(C)C4)C3)ncc12 [Example 1-26, (R)-N-(1-(2-fluoro-3-(trifluoromethyl)phenyl)ethyl)-4-methyl-7-(2-methyl-2,6-diazaspiro[3.4]octan-6-yl)pyrido[3,4-d]pyridazin-1-amine]	0.348 nM	30.8 nM
